# Marks after values point to notes of the source that are not given here.
# Key:
# AhR = biological target: T1, AhR (Homo sapiens, UniProt P35869); test: AhR agonism luciferase reporter gene assay in transfected HepG2 cells; format: cell-based; conditions: 16 h, ratio of treatment group to blank
# T1 construct: expressed in transfected cells; host or cells: HepG2
# T1 sequence (P35869 11-848): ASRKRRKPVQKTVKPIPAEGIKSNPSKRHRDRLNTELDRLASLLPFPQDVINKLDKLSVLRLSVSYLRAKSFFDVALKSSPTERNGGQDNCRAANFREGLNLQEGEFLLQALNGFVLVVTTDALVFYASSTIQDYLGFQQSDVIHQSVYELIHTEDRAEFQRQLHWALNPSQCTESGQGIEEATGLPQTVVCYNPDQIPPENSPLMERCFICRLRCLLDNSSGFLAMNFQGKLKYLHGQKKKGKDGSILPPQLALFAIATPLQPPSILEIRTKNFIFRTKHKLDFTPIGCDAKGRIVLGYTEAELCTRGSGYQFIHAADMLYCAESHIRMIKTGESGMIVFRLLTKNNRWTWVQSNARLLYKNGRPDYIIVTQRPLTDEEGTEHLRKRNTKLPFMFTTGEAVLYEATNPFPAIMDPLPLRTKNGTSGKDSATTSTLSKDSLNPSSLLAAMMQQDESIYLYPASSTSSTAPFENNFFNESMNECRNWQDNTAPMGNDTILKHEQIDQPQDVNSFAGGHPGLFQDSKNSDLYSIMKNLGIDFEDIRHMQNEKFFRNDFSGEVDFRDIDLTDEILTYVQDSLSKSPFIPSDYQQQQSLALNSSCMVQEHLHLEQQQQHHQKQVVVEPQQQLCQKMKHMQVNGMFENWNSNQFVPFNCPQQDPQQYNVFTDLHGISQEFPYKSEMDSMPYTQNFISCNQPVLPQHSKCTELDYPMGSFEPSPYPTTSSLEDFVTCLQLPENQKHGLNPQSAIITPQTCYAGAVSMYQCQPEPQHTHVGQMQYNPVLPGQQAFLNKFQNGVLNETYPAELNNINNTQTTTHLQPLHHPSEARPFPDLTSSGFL
# Method: When the cell confluence reached 80%, the culture medium was replaced with a fresh one, and the transfection working solution was added for transfection overnight. The formula of the working solution is as follows: 1 mL of Opti-MEM+7.5 μg of pCMV-AHR+7.5 μg of pTK-3×DRE-Luc+30 μL of lipo6000. • (2) Cell plating: The transfected cells were digested, prepared into a cell suspension at a concentration of 3×10^5 cells/mL, and then plated on a 96-well plate at 100 µL/well for adherent culture overnight. • (3) Formulation
# The prepared drug-containing culture media and a blank culture medium were added to the 96-well plate described above at 100 μL/well.
# atopic dermatitis = test: DNFB-induced atopic dermatitis mouse model (AD Score); format: in vivo, BALB/C mice; set-up: scale not given here; conditions: DNFB mice
# Method: 56 clean-grade BALB/C mice aged 6-8 weeks were subjected to 5 days of adaptive feeding and then randomized into 7 groups of 8 mice each: • A. Blank control group • B. Modeling+solvent group • C. Modeling+blank matrix group • D. Modeling+positive drug mometasone furoate group • E. Modeling+1 wt % of benvitimod group • F. […] The animal experiments were conducted in accordance with the Experimental Animal Feeding, Management and Use Guidelines of China Pharmaceutical University and in compliance with animal study ethics and regulations. As shown in the above procedures, the solvent control or DNFB was given in the morning for modeling; from day 5, the test compound ointment was administered once every afternoon at 50 mg/dose evenly on the skin surface. The specific administration method is as shown above; Specific procedures: […] Severity of atopic dermatitis was scored using the AD Score criteria The severity of the appearance of dermatitis was evaluated based on 4 indicators: A. erythema/bleeding; B. dryness; C. effusion/crusting; D. edema.
SMILES,AhR receptor agonistic fold (AhR; drug concentration 0.1 μM) [fold],AhR receptor agonistic fold (AhR; drug concentration 1 μM) [fold],further results
"Oc1cc(/C=C/c2ccc(Cl)cc2)cc(O)c1C1CCCC1 [Compound 3, (E)-2-cyclopentyl-5-(4-chlorostyryl)-1,3-benzenediol]",4.0 ± 0.5,18.2 ± 0.6,
"Oc1cc(/C=C/c2ccc(F)c(F)c2F)cc(O)c1C1CCCCC1 [Compound 14, (E)-2-cyclohexyl-5-(2,3,4-trifluorostyryl)-1,3-benzenediol]",13.1 ± 2.4,20.8 ± 1.4,
"Oc1cc(/C=C/c2ccc(Br)cc2)cc(O)c1C1CCCCC1 [Compound 8, (E)-2-cyclohexyl-5-(4-bromostyryl)-1,3-benzenediol]",5.2 ± 0.2,11.8 ± 0.7,
"Oc1cc(/C=C/c2ccc(Cl)cc2)cc(O)c1C1CCCCC1 [Compound 7, (E)-2-cyclohexyl-5-(4-chlorostyryl)-1,3-benzenediol]",5.1 ± 0.4,9.5 ± 0.5,
"Oc1cc(/C=C/c2cc(F)c(F)c(F)c2)cc(O)c1C1CCCCC1 [Compound 15, (E)-2-cyclohexyl-5-(3,4,5-trifluorostyryl)-1,3-benzenediol]",7.5 ± 1.8,22.2 ± 2.8,
"O=Cc1c2[nH]c3ccccc3c2cc2[nH]c3ccccc3c12 [Reference 3#, FICZ, reference compound]",2.3 ± 0.2,4.3 ± 0.2,
"Oc1cc(/C=C/c2ccccc2Cl)cc(O)c1C1CCCCC1 [Compound 9, (E)-2-cyclohexyl-5-(2-chlorostyryl)-1,3-benzenediol]",4.9 ± 1.9,17.1 ± 2.5,
"Oc1cc(/C=C/c2cccc(Cl)c2)cc(O)c1C1CCCCC1 [Compound 10, (E)-2-cyclohexyl-5-(3-chlorostyryl)-1,3-benzenediol]",4.5 ± 1.0,14.7 ± 2.3,
"Oc1cc(/C=C/c2cccc(F)c2)cc(O)c1C1CCCC1 [Compound 16, (E)-2-cyclopentyl-5-(3-fluorostyryl)-1,3-benzenediol]",6.0 ± 0.8,18.5 ± 2.9,
"Oc1cc(/C=C/c2cc(F)cc(F)c2)cc(O)c1C1CCCCC1 [Compound 13, (E)-2-cyclohexyl-5-(3,5-difluorostyryl)-1,3-benzenediol]",9.2 ± 1.2,14.6 ± 0.9,
"CC(C)c1c(O)cc(/C=C/c2ccc(F)cc2)cc1O [Reference 2#, reference compound]",2.5 ± 1.1,7.8 ± 1.0,
"Oc1cc(/C=C/c2cccc(F)c2F)cc(O)c1C1CCCCC1 [Compound 12, (E)-2-cyclohexyl-5-(2,3-difluorostyryl)-1,3-benzenediol]",6.8 ± 0.1,17.1 ± 0.6,
"Oc1cc(/C=C/c2ccccc2)cc(O)c1C1CCCCC1 [Compound 5, (E)-2-cyclohexyl-5-styryl-1,3-benzenediol]",5.8 ± 0.3,16.6 ± 0.7,
"Oc1cc(/C=C/c2ccccc2)cc(O)c1C1CCCC1 [Compound 1, (E)-2-cyclopentyl-5-styryl-1,3-benzenediol]",3.1 ± 0.3,12.1 ± 0.4,
"Oc1cc(/C=C/c2ccc(Br)cc2)cc(O)c1C1CCCC1 [Compound 4, (E)-2-cyclopentyl-5-(4-bromostyryl)-1,3-benzenediol]",7.8 ± 0.1,14.4 ± 0.3,
"C[C@@H]1C[C@H]2[C@@H]3CCC4=CC(=O)C=C[C@]4(C)[C@@]3(Cl)[C@@H](O)C[C@]2(C)[C@@]1(OC(=O)c1ccco1)C(=O)CCl [Mometasone furoate, mometasone furoate, reference compound]",,,"Back AD score (atopic dermatitis; day 0, before ointment treatment (from day 5)): 0.00 ± 0.00; Back AD score (atopic dermatitis; day 4, before ointment treatment (from day 5)): 3.50 ± 0.61; Back AD score (atopic dermatitis; day 6, ointment 50 mg once daily from day 5 (1.2 wt % 2#/6#, 1 wt % benvitimod)): 5.38 ± 1.65**^b; Back AD score (atopic dermatitis; day 8, ointment 50 mg once daily from day 5 (1.2 wt % 2#/6#, 1 wt % benvitimod)): 6.50 ± 1.22**^a; Back AD score (atopic dermatitis; day 10, ointment 50 mg once daily from day 5 (1.2 wt % 2#/6#, 1 wt % benvitimod)): 5.00 ± 1.00**^aabb"
"Oc1cc(/C=C/c2ccc(F)c(F)c2)cc(O)c1C1CCCCC1 [Compound 11, (E)-2-cyclohexyl-5-(3,4-difluorostyryl)-1,3-benzenediol]",6.6 ± 1.6,20.0 ± 1.6,
